Test results reported in patent US11793880B2, “Conjugates of quaternized tubulysin compounds” (Seagen Inc., priority 2015, dated 2023).
Like-named read-outs stand apart in the source and are kept apart here.

How the values were obtained:
[1] = tested on: DEL, ALCL; conditions: Table 5; cAC10 ADCs 8 drugs/mAb, MDPR-Linker-TubM
Experimental: (§1) In vitro assays. Cells cultured in log-phase growth were seeded for 24 h in 96-well plates containing 150 μL RPMI 1640 supplemented with 20% FBS. Serial dilutions of antibody-drug conjugates in cell culture media were prepared at 4× working concentrations; 50 μL of each dilution was added to the 96-well plates. […] After 96 h, growth inhibition was assessed by CellTiter-Glo® (Promega, Madison, WI) and luminescence was measured on a plate reader.
(§2) In vitro assays—tubulysin ADCs. ADCs were prepared by t Ell reduction of interchain disulfides to reveal 8-conjugatable cysteines/antibody that were alkylated through Michael addition with the maleimide-containing Drug Linker compounds. […] conjugates hearing quaternized tubulysin ethers with and without a PEG12 side-chain were compared to their tubulysin M analogs.
(§3) Several hydrophilic linker constructs incorporating quaternized tubulysin M were prepared and evaluated in vitro; the results are shown in Table 5. The data (IC50 values in ng/mL) indicate that Conjugates prepared from Drug Linker compounds having quaternized tubulysin M linked via a hydrophilic ValGlu dipeptide with (95) or without (91) a PEG12 side chain, or linked via a hydrophilic glucuronide (82) provide ADCs that are equipotent to the ValAla comparator (15).

[2] = tested on: DEL/BVR, MDR + ALCL
Experimental: as §1, §2, §3

[3] = tested on: L428, MDR + HL
Experimental: as §1, §2, §3

[4] = tested on: L540cy, HL
Experimental: as §1, §2, §3

[5] = tested on: antigen-negative Hep3B hepatocellular carcinoma cells; conditions: Table 5, cAC10 ADCs 8 drugs/mAb, MDPR-Linker-TubM
Experimental: as §1, §3

[6] = tested on: Karpas299, L540cy, L428, DEL, DEL/BVR cell lines; experiment: In vitro assays - tubulysin ADCs, statements across the cell line panel; format: cell-based; conditions: for potency relative to the ValAla comparator (15), in words: Table 5, cAC10 ADCs 8 drugs/mAb, quaternized tubulysin M
Experimental: as §1, §2, §3

[7] = tested on: Karpas299, ALCL; experiment: In vitro assays - tubulysin ADCs (cAC10, anti-CD30); format: cell-based; conditions: Table 4; cAC10 ADCs DAR 8, 96 h
Experimental: In vitro assays. Cells cultured in log-phase growth were seeded for 24 h in 96-well plates containing 150 μL RPMI 1640 supplemented with 20% FBS. Serial dilutions of antibody-drug conjugates in cell culture media were prepared at 4× working concentrations; 50 μL of each dilution was added to the 96-well plates. Following addition of ADC, cells were incubated with test articles for 4 d at 37° C. After 96 h, growth inhibition was assessed by CellTiter-Glo® (Promega, Madison, WI) and luminescence was measured on a plate reader.

[8] = Table 5, cAC10 ADCs 8 drugs/mAb, MDPR-Linker-TubM
[9] = Table 4, cAC10 ADCs DAR 8, 96 h

| Compound | IC50, DEL, ALCL [1] | IC50, DEL/BVR, MDR + ALCL [2, 8] | IC50, L428, MDR + HL [3, 8] | IC50, L540cy, HL [4, 8] | IC50, Hep3B CD30- HCC [5] | potency relative to the ValAla comparator (15), in words [6] | IC50, Karpas299, ALCL [7] | IC50, DEL/BVR, MDR + ALCL [2, 9] | IC50, L428, MDR + HL [3, 9] | IC50, L540cy, HL [4, 9] | conjugate potency, in words ([6]; Table 4, cAC10 conjugates 8 drug/Ab) |
| --- | --- | --- | --- | --- | --- | --- | --- | --- | --- | --- | --- |
| CC[C@H](C)[C@H](NC(=O)[C@H]1CCCC[N+]1(C)Cc1ccc(NC(=O)[C@H](CCC(=O)O)NC(=O)[C@@H](NC(=O)[C@H](CCCCNC(=O)CCOCCOCCOCCOCCOCCOCCOCCOCCOCCOCCOCCOC)NC(=O)[C@H](CN)N2C(=O)C=CC2=O)C(C)C)cc1)C(=O)N(C)[C@H](C[C@@H](OC(C)=O)c1nc(C(=O)N[C@@H](Cc2ccccc2)C[C@H](C)C(=O)O)cs1)C(C)C (some centres unmarked) [Compound 95] | 0.1 ng/mL | 2 ng/mL | 0.2 ng/mL | 0.8 ng/mL | >1000 ng/mL | equipotent | – | – | – | – | – |
| CC[C@H](C)[C@H](NC(=O)[C@H]1CCCC[N+]1(C)Cc1ccc(NC(=O)[C@H](CCC(=O)O)NC(=O)[C@@H](NC(=O)[C@H](CN)N2C(=O)C=CC2=O)C(C)C)cc1)C(=O)N(C)[C@H](C[C@@H](OC(C)=O)c1nc(C(=O)N[C@@H](Cc2ccccc2)C[C@H](C)C(=O)O)cs1)C(C)C (stereo partly drawn) [Compound 91, (2R)-2-(((2S,3S)-1-(((1R,3R)-1-acetoxy-1-(4-(((2R,4S)-4-carboxy-1-phenylpentan-2-yl)carbamoyl)thiazol-2-yl)-4-methylpentan-3-yl)(methyl)amino)-3-methyl-1-oxopentan-2-yl)carbamoyl)-1-(4-((S)-2-((S)-2-((S)-3-amino-24 (2,5-dioxo-2,5-dihydro-1H-pyrrol-1-yl)propanamido)-3-methylbutanamido)-4-carboxybutanamido)benzyl)-1-methylpiperidin-1-ium] | 0.1 ng/mL | 2 ng/mL | 0.3 ng/mL | 1 ng/mL | >1000 ng/mL | equipotent | – | – | – | – | – |
| CC[C@H](C)[C@H](NC(=O)[C@H]1CCCC[N+]1(C)Cc1ccc(O[C@@H]2O[C@H](C(=O)O)[C@@H](O)[C@H](O)[C@H]2O)c(NC(=O)CCNC(=O)[C@H](CN)N2C(=O)C=CC2=O)c1)C(=O)N(C)[C@H](C[C@@H](OC(C)=O)c1nc(C(=O)N[C@@H](Cc2ccccc2)C[C@H](C)C(=O)O)cs1)C(C)C (stereo partly drawn) [Compound 82, (2R)-2-(((2S,3S)-1-(((1R,3R)-1-acetoxy-1-(4-(((2R,4S)-4-carboxy-1-phenylpentan-2-yl)carbamoyl)thiazol-2-yl)-4-methylpentan-3-yl)(methyl)amino)-3-methyl-1-oxopentan-2-yl)carbamoyl)-1-(3-(3-((S)-3-amino-2-(2,5-dioxo-2,5-dihydro-1H-pyrrol-1-yl)propanamido)propanamido)-4-(((2S,3R,4S,5S,6S)-6-carboxy-3,4,5-trihydroxytetrahydro-2H-pyran-2-yl)oxy)benzyl)-1-methylpiperidin-1-ium] | 0.3 ng/mL | 4 ng/mL | 0.4 ng/mL | 1 ng/mL | >1000 ng/mL | – | 0.6 ng/mL | 3 ng/mL | 0.5 ng/mL | 4 ng/mL | – |
| CCO[C@H](C[C@H](C(C)C)N(C)C(=O)[C@@H](NC(=O)[C@H]1CCCC[N+]1(C)Cc1ccc(O[C@@H]2O[C@H](C(=O)O)[C@@H](O)[C@H](O)[C@H]2O)c(NC(=O)CCNC(=O)[C@H](CN)N2C(=O)C=CC2=O)c1)[C@@H](C)CC)c1nc(C(=O)N[C@@H](Cc2ccccc2)C[C@H](C)C(=O)O)cs1 (stereo partly drawn) [Compound 57, (2R)-1-(3-(3-((S)-3-amino-2-(2,5-dioxo-2,5-dihydro-1H-pyrrol-1-yl)propanamido)propanamido)-4-(((2S,3R,4S,5S,6S)-6-carboxy-3,4,5-trihydroxytetrahydro-2H-pyran-2-yl)oxy)benzyl)-2-(((2S,3S)-1-(((1R,3R)-1-(4-(((2R,4S)-4-carboxy-1-phenylpentan-2-yl)carbamoyl)thiazol-2-yl)-1-ethoxy-4-methylpentan-3-yl)(methyl)amino)-3-methyl-1-oxopentan-2-yl)carbamoyl)-1-methylpiperidin-1-ium] | – | – | – | – | – | – | 1 ng/mL | 5 ng/mL | 4 ng/mL | 5 ng/mL | consistently more potent |
